Assay results: patent US20170115308A1, “ASSAY TO MEASURE EFFICACY OF CDK8/19 INHIBITORS” (SENEX BIOTECHNOLOGY, INC., priority 2014, published 2017)

What was measured:
[1] = tested on: STAT1 S727 phosphorylation; test: STAT1 S727 phosphorylation by immunoblotting in HCT116 colon carcinoma cells; type: cell-based, human; settings: for inhibition of STAT1 S727 phosphorylation: HCT116, 24 hr treatment, different concentrations
Description: (§1) STAT1 S727 phosphorylation was analyzed by immunoblotting using the following primary antibodies: Phospho-Stat1 (Ser727) (D3B7) Rabbit mAb #8826 (used at 1:1000 dilution) and Rabbit Ab #9177 (used at 1:500 dilution) from Cell Signaling Technology (Danvers, Mass.), and total-STAT1 Stat1 p84/p91 Antibody (M-22): sc-592 from Santa Cruz Biotechnology (Dallas, Tex.), used at 1:500 dilution. As a loading control an antibody against a housekeeping protein GAPDH (6C5 mouse monoclonal antibody from Abcam), was used at 1:1000 dilution.
In the experiments shown in FIG. 2, this analysis was continued in HCT116 human colon carcinoma cells.

[2] = tested on: TNFα-induced CXCL1 and CXCL2 transcription; test: Induction of NFκB-regulated genes by TNFα in HEK-293 cells; type: cell-based, human
[3] = tested on: proteins bound at NFκB-regulated and housekeeping genes; test: Chromatin immunoprecipitation (ChIP) with quantitative real-time PCR in 293 cells; type: cell-based, human
Excerpt: Sonicated chromatin was immunoprecipitated with the antibodies against the indicated proteins. The ChIP preps were used for quantitative real-time PCR amplification of different segments of the indicated genes (X-axes show the positions of the tested segments relative to transcription start sites). The results of this analysis for all four conditions (blue, control; red, Senexin A; green, TNFα; purple, TNFα plus Senexin A) are shown, with the genomic positions of the PCR primers diagrammed at the top of the figure.
(Burke et al., 2014) have recently shown that STAT1 cooperates with NFκB in the induction of CXCL1 and CXCL2 transcription by IL-1β in rat insulinoma cells. We have therefore tested whether TNFα-induced CXCL1 and CXCL2 transcription in HEK-293 cells involves STAT1 and whether pSTAT1 in this system is affected by CDK8/19 inhibition. This analysis was conducted by chromatin immunoprecipitation (ChIP) of 293 cells that were pre-treated with 5 μM CDK8/19 inhibitor Senexin A (Porter et al., 2012) or carrier for one hour, at which point either TNFα at 10 ng/ml or carrier was added for 30 min. Sonicated chromatin was extracted as described (Galbraith et al., 2013) and immunoprecipitated with the antibodies against the indicated proteins. […] The results of this analysis for all four conditions (untreated, Senexin A, TNFα, and TNFα plus Senexin A) are shown in FIG. 5, with the genomic positions of the tested ChIP primers diagrammed at the top of the figure.

[4] = tested on: STAT1 S727 phosphorylation; test: STAT1 S727 phosphorylation in whole-cell protein extracts of 293 cells; type: cell-based, human; settings: 5 μM
Description: (§2) Results are shown for three biological replicates.
as §1

[5] = tested on: Pol II CTD phosphorylation; test: Immunoblotting of total Pol II CTD phosphorylation in whole-cell lysates of 293 cells; type: cell-based, human; settings: 293 whole-cell lysates, same conditions as the ChIP
Excerpt: as §2

[6] = tested on: STAT1 S727 phosphorylation; test: STAT1 S727 phosphorylation by immunoblotting in LNCaP-LN3 derivatives (DV and DK); type: cell-based, human; settings: treated for 5 hrs
Description: as §1
In the experiment shown in FIG. 1, human LNCaP-LN3 cells, an in vivo-derived metastatic variant of LNCaP prostate cancer cells were used. We have compared STAT1 S727 phosphorylation in two derivatives of LNCaP-LN3, one with shRNA knockdown of both CDK8 and CDK19 (CDK8 shRNA was expressed from lentiviral vector PHLB carrying blasticidin resistance marker; CDK19 shRNA was expressed from lentiviral vector pLKO.1 carrying puromycin resistance marker) (DK, double knockdown), and in control cells transduced with insert-free PHLB and pLK0.1 vectors (DV, double vector). […] The immunoblotting for phospho-STAT1 S727 (pSTAT1) and total STAT1 (tSTAT1) is shown in FIG. 1A, and image quantitation for the ratio of pSTAT1/tSTAT1 is shown in FIG. 1B. […]

[7] = tested on: STAT1 in complexes with CDK8; test: CDK8 immunoprecipitation from HCT116 cells, immunoblotted for total STAT1 or phospho-STAT1 S727; type: cell-based, human; settings: HCT116, 24 hrs, 10 μM
Excerpt: To determine whether the effect of CDK8/19 inhibitors on STAT1 S727 phosphorylation involved direct interaction between CDK8 and STAT1, we have asked if STAT1 and CDK8 would co-immunoprecipitate, and if so, whether CDK8/19 kinase inhibition would affect STAT1 phosphorylation in complexes with CDK8.

[8] = tested on: STAT1 S727 phosphorylation; test: STAT1 S727 phosphorylation by immunoblotting in MCF7 breast cancer cells; type: cell-based, human
Description: as §1
(§3) FIG. 3 illustrates the inhibition of basal STAT1 S727 phosphorylation by CDK8/19 inhibitors in human breast cancer cell lines.

[9] = tested on: STAT1 S727 phosphorylation; test: STAT1 S727 phosphorylation by immunoblotting in SKBR3 breast cancer cells; type: cell-based, human; settings: SKBR3, 1 μM or 5 μM, after 30 min of treatment
Description: as §1, §3

[10] = tested on: STAT1 S727 phosphorylation; test: STAT1 S727 phosphorylation by immunoblotting in MDA-MB-361 breast cancer cells; type: cell-based, human; settings: MDA-MB-361, 6 hr, 5 μM
Description: as §1, §3

[11] = tested on: STAT1 S727 phosphorylation; test: In situ immunofluorescence staining for phospho-STAT1 S727 and total STAT1 in MCF7 cells; type: cell-based, human
[12] = tested on: STAT1 S727 phosphorylation; test: In situ immunofluorescence staining for phospho-STAT1 S727 and total STAT1 in HCT116 cells; type: cell-based, human
[13] = tested on: STAT1 S727 phosphorylation; settings: Bancerek et al., 2013; cited from earlier work
[14] = 5 μM pre-treatment one hour, TNFα 10 ng/ml 30 min

In the case of `CN(C)C1CC23CCC4(O2)C(=CCC2(C)C(c5ccc6ccncc6c5)=CCC24)C=C3C(O)C1O` (stereo not drawn) [16-didehydro-cortistatin A], the “inhibition of STAT1 S727 phosphorylation” value [1] is reported as “inhibited STAT1 S727 phosphorylation similarly to Senexin B”.

For `N#Cc1ccc2ncnc(NCCc3ccccc3)c2c1` [Senexin A], the “regulation of housekeeping genes HGPRT and GAPDH” value [2] was “not regulated”, the “inhibition of TNFα induction of CXCL1” value ([2]; 5 μM, TNFα 10 ng/ml) was about 10 fold and the “inhibition of TNFα induction of CXCL2” value ([2]; 5 μM, TNFα 10 ng/ml) was about 10 fold. For the same compound, the “inhibition of TNFα induction of NFKBIA” value ([2]; 5 μM, TNFα 10 ng/ml) was about 1.4 fold, the “Pol II recruitment and distribution along the regulated genes” value [3, 14] was “moderate effect” and the “recruitment of p65 subunit of NFκB and CDK8 to promoters of NFκB-regulated genes” value [3, 14] was “little or no effect”. The “phospho-STAT1 S727 (pSTAT1) at CXCL1” value ([3]; 5 μM, TNFα) was “a strong effect”, the “phospho-STAT1 S727 (pSTAT1) at NFKBIA” value ([3]; 5 μM, TNFα) was “a weaker effect” and the “phospho-STAT1 S727 (pSTAT1) at the housekeeping genes” value ([3]; 5 μM, TNFα) was “little or no effect”. For the same compound, the “Pol II CTD phosphorylation (S5P, S2P) at the strongly regulated genes” value ([3]; 5 μM, TNFα, CXCL1 and CXCL2) was “strongly inhibited”, the “association of pSTAT1 with any of the tested genes” value ([3]; absence of TNFα, total of 90 min treatment) was “unaffected” and the “STAT1 S727 phosphorylation in whole-cell protein extracts” value [4] was “strongly inhibited”. The “treatment time after which the effect on STAT1 S727 phosphorylation is noticeable” value [4] was 15 min, the “treatment time after which the effect on STAT1 S727 phosphorylation is very strong” value [4] was 1 h and the “total Pol II CTD phosphorylation” value [5] was “not significantly affected”.

In the case of `CN1CCN(C(=O)c2ccc3cc(CCNc4ncnc5ccc(C#N)cc45)ccc3c2)CC1` [Senexin B], the “concentration from which STAT1 S727 phosphorylation plateaus at a low level” value ([6]; LNCaP-LN3 DV and DK cells) is reported as 1 µM, the “concentration from which basal STAT1 S727 phosphorylation is decreased (lowest concentration)” value ([6]; LNCaP-LN3 cells, pSTAT1/tSTAT1 ratio) is reported as 16 nM and the “treatment time after which inhibition of STAT1 S727 phosphorylation is noticeable” value ([1]; HCT116, 5 μM) is reported as 15 min. For the same compound, the “treatment time after which inhibition of STAT1 S727 phosphorylation is very strong” value ([1]; HCT116, 5 μM) was 1 h, the “inhibition of STAT1 S727 phosphorylation” value [1] was “concentration-dependent inhibition” and the “binding of total STAT1 to CDK8 (co-immunoprecipitation)” value [7] was “does not affect the binding of total STAT1”. For the same compound, the “phospho-STAT1 S727 in CDK8 immunoprecipitate” value [7] was “inhibits its phosphorylation at S727”, the “inhibition of STAT1 S727 phosphorylation, concentration series” value ([8]; MCF7, 24 hr treatment, indicated concentrations) was “concentration-dependent inhibition” and the “inhibition of STAT1 S727 phosphorylation” value ([8]; MCF7, 24 hr, 5 μM, two antibodies (#8826 and #9177)) was “inhibition of STAT1 S727 phosphorylation”. For the same compound, the “inhibition of STAT1 S727 phosphorylation, time course” value [9] was “strong inhibition”, the “inhibition of STAT1 S727 phosphorylation” value [10] was “inhibits STAT1 S727 phosphorylation” and the “staining with phospho-STAT1 S727 antibody in situ” value [11] was “inhibition of STAT1 S727 phosphorylation”. For the same compound, the “staining with the antibody against total STAT1” value [11] was “no apparent effect”, the “staining with phospho-STAT1 S727 antibody in situ” value [12] was “inhibition of STAT1 S727 phosphorylation” and the “staining with the antibody against total STAT1” value [12] was “no apparent effect”.

For `CN1CC[C@H](c2c(O)cc(O)c3c(=O)cc(-c4ccccc4Cl)oc23)[C@H](O)C1` [flavopiridol], the “enhancement of STAT1 S727 phosphorylation by LPS or anisomycin” value [13] is given as “failed to inhibit”.

In the case of Cortistatin A, the “inhibition of STAT1 S727 phosphorylation” value [1] is reported as “concentration-dependent inhibition”.
